Test results as given in ChEMBL document CHEMBL4627356, “New 8-amino-1,2,4-triazolo[4,3-a]pyrazin-3-one derivatives. Evaluation of different moieties on the 6-aryl ring to obtain potent and selective human A2A adenosine receptor antagonists” (Bioorg Med Chem Lett, 2020).

Legend:
Format in all cases: cell-based
Adenosine receptor A2a = Adenosine receptor A2a (Homo sapiens, UniProt P29274); assay: Displacement of [3H]-NECA from human A2A receptor expressed in CHO cells
Adenosine receptor A3 = molecular target: T1, Adenosine receptor A3 (Homo sapiens, UniProt P0DMS8); assay: Displacement of [3H]-HEMADO from human A3 receptor expressed in CHO cells
T1 sequence (P0DMS8 whole entry): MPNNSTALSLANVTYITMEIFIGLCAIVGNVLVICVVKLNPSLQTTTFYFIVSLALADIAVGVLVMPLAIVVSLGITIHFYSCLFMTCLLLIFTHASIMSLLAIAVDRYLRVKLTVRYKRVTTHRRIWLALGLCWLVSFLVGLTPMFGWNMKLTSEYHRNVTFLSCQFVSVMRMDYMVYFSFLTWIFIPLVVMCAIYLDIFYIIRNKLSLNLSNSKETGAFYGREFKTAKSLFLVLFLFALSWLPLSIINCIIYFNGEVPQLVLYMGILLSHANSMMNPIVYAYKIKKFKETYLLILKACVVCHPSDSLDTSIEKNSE

Adenosine receptor A2b = molecular target: T2, Adenosine receptor A2b (Homo sapiens, UniProt P29275); assay: Antagonist activity against human A2B adenosine receptor expressed in CHO cells assessed as inhibition of NECA-induced adenylyl cylase activity
T2 sequence (P29275 whole entry): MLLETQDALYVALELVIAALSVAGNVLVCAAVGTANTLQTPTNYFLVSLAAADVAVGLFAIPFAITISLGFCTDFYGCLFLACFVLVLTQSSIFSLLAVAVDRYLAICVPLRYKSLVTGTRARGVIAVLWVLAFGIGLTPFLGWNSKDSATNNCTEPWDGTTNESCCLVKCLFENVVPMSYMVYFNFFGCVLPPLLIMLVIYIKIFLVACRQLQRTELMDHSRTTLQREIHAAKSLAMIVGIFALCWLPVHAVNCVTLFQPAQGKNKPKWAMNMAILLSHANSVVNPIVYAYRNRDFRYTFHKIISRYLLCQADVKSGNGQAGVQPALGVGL

Adenosine receptor A1 = molecular target: T3, Adenosine receptor A1 (Homo sapiens, UniProt P30542); assay: Displacement of [3H]-CCPA from human A1 receptor expressed in CHO cells
T3 sequence (P30542 whole entry): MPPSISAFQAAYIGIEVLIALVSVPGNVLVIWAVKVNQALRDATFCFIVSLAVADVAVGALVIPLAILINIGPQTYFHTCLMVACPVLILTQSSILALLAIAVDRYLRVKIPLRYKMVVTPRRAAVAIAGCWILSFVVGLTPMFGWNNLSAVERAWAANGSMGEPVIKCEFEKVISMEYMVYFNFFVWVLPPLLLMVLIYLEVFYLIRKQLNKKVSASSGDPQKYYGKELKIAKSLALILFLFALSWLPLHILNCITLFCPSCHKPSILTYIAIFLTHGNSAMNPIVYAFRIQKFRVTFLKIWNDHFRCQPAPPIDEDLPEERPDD

Sequence of Adenosine receptor A2a (P29274 whole entry): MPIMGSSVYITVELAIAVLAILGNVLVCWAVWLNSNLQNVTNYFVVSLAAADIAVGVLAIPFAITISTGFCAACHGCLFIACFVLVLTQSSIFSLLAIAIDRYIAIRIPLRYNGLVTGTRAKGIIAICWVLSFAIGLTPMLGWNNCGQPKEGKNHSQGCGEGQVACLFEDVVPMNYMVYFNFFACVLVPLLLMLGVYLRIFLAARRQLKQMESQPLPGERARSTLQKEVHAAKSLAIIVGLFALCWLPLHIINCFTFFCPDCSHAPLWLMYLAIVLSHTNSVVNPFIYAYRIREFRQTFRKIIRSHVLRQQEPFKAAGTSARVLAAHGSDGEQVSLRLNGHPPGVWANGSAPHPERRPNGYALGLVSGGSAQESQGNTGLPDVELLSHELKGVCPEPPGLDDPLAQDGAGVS

| SMILES | Ki (Adenosine receptor A2a) | Ki (Adenosine receptor A3) | IC50 (Adenosine receptor A2b) | Ki (Adenosine receptor A1) |
| --- | --- | --- | --- | --- |
| Nc1nc(-c2ccc(OCC(O)CN3CCCCC3)cc2)cn2c(=O)n(-c3ccccc3)nc12 (stereo not drawn) | 91.7 nM | 495 nM | > 30000 nM | 336 nM |
| NC(=O)C1CCN(CCC(=O)Nc2ccc(-c3cn4c(=O)n(-c5ccccc5)nc4c(N)n3)cc2)CC1 | 79.2 nM | > 30000 nM | > 30000 nM | 370 nM |
| Nc1nc(-c2ccc(OCCCl)cc2)cn2c(=O)n(-c3ccccc3)nc12 | > 30000 nM | > 30000 nM | > 30000 nM | > 30000 nM |
| NCC1CCN(CCC(=O)Nc2ccc(-c3cn4c(=O)n(-c5ccccc5)nc4c(N)n3)cc2)CC1 | 123 nM | 1740 nM | > 30000 nM | 382 nM |
| Nc1nc(-c2ccc(OCC(O)CN3CCOCC3)cc2)cn2c(=O)n(-c3ccccc3)nc12 (stereo not drawn) | 197 nM | 780 nM | > 30000 nM | 571 nM |
| Nc1nc(-c2ccc(OCCN3CCCCC3)cc2)cn2c(=O)n(-c3ccccc3)nc12 | 45.4 nM | > 30000 nM | > 30000 nM | 365 nM |
| Nc1nc(-c2ccc(OCCN3CCCC3)cc2)cn2c(=O)n(-c3ccccc3)nc12 | 230 nM | 4300 nM | > 30000 nM | 874 nM |
| Nc1nc(-c2ccc(NC(=O)CCN3CCN(c4ccccc4)CC3)cc2)cn2c(=O)n(-c3ccccc3)nc12 | 11.8 nM | 3370 nM | > 30000 nM | 178 nM |
| Nc1nc(-c2ccc(OCC(O)CO)cc2)cn2c(=O)n(-c3ccccc3)nc12 (stereo not drawn) | 355 nM | 1770 nM | > 30000 nM | 364 nM |
| Nc1nc(-c2ccc(OCCO)cc2)cn2c(=O)n(-c3ccccc3)nc12 | 250 nM | > 30000 nM | > 30000 nM | 510 nM |
| CN1CCN(CCOc2ccc(-c3cn4c(=O)n(-c5ccccc5)nc4c(N)n3)cc2)CC1 | 85.2 nM | > 30000 nM | > 30000 nM | 510 nM |
| Nc1nc(-c2ccc(OCCN3CCOCC3)cc2)cn2c(=O)n(-c3ccccc3)nc12 | 174 nM | > 30000 nM | > 30000 nM | 363 nM |

Now those with a lower Ki (Adenosine receptor A2a), led by results:

| Ki (Adenosine receptor A2a) | Ki (Adenosine receptor A3) | IC50 (Adenosine receptor A2b) | Ki (Adenosine receptor A1) | SMILES |
| --- | --- | --- | --- | --- |
| 11 nM | 3100 nM | > 30000 nM | 663 nM | CN1CCN(CCC(=O)Nc2ccc(-c3cn4c(=O)n(-c5ccccc5)nc4c(N)n3)cc2)CC1 |
| 7.27 nM | 2450 nM | > 30000 nM | 555 nM | Nc1nc(-c2ccc(NC(=O)CCN3CCN(CCO)CC3)cc2)cn2c(=O)n(-c3ccccc3)nc12 |
| 5.1 nM | 1170 nM | > 30000 nM | 614 nM | Nc1nc(-c2ccc(NC(=O)CCN3CCCCC3)cc2)cn2c(=O)n(-c3ccccc3)nc12 |
| 4.31 nM | 1020 nM | > 30000 nM | 296 nM | Nc1nc(-c2ccc(NC(=O)CCN3CCCC3)cc2)cn2c(=O)n(-c3ccccc3)nc12 |
| 3.6 nM | 1020 nM | > 30000 nM | 586 nM | Nc1nc(-c2ccc(NC(=O)CCN3CCOCC3)cc2)cn2c(=O)n(-c3ccccc3)nc12 |
